Reference: publication PMC5817852 (The Open Medicinal Chemistry Journal, 2018)
Where two headings read alike, the source gives them in different places.

Experiments:
[1] = system: HT29 colorectal carcinoma; assay: qHTS cell viability screen (Cell Titer Glo), HT29; assay type: cell-based
[2] = system: MDA-MB-231 breast cancer cell line; assay: qHTS cell viability screen (Cell Titer Glo), MDA-MB-231; assay type: cell-based
[3] = system: PC3 prostate cancer cell line; assay: qHTS cell viability screen (Cell Titer Glo), PC3; assay type: cell-based; conditions: PC3 prostate, 72 hours, cell viability Cell Titer Glo, read-out: CC50 PC3
[4] = BJ cell cytotoxicity counter screen; conditions: human, BJ cells (normal human foreskin fibroblast cell line)
From the text: Most analogs in the presented series are lipophilic while also containing a positively charged amine. Lipophilic basic amines can accumulate in cell membranes if their lipophilic atom groups form favorable non-polar contacts with lipid chains while their charged amine is interacting with fatty acid head groups. Such association with lipids can lead to cytotoxicity through membrane destabilization. Therefore, we evaluated a number of representative compounds against BJ cells, a normal human foreskin fibroblast cell line, where cytotoxicity was determined at 10 µM drug concentration, as described previously.
minimum locked at 0 and 100 respectively.
children with ALL in relapse.
foreskin fibroblast cell line (BJ).
Table 2. […] SSA: Sulindac sulfide

[5] = Homo sapiens, HT-29, 72 h, HT29 colorectal carcinoma, 72 hours, cell viability Cell Titer Glo, read-out: CC50 HT29
[6] = Homo sapiens, MDA-MB-231, 96 h, MDA-MB-231 breast, 96 hours, cell viability Cell Titer Glo, read-out: CC50 MDA-MB-231
[7] = HT29 colorectal carcinoma, 72 hours, cell viability Cell Titer Glo, read-out: CC50 HT29
[8] = MDA-MB-231 breast, 96 hours, cell viability Cell Titer Glo, read-out: CC50 MDA-MB-231

With CCS(=O)(=O)NCC1=C(C)/C(=C/c2cc(OC)c(OC)c(OC)c2)c2ccc(F)cc21 [Compound 42] the CC50 [1, 5] was 15.6 ± 5.56 µM, the CC50 [2, 6] was 6.58 ± 1.39 µM and the melting point was 132 to 134 °C. For the same compound, the CC50 ([3]; 72 h) was 15.1 ± 1.84 µM.
Compound COc1cc(/C=C2/C(C)=C(CN)c3cc(F)ccc32)cc(OC)c1OC [Compound 17] has a CC50 [1, 5] of 14.6 ± 2.42 µM, a CC50 [2, 6] of 15.3 ± 4.44 µM and a melting point of 108 to 110 °C. It also gave a CC50 ([3]; 72 h) of 29.7 ± 4.49 µM.
CSc1ccc(/C=C2/C(C)=C(CNC(=O)c3ccco3)c3cc(F)ccc32)cc1 [Compound 19] showed a CC50 [1, 7] of 33.2 ± 3.43 µM, a CC50 [2, 8] of 41.2 ± 7.6 µM and a CC50 [3] of 39.8 ± 6.81 µM.
In the case of COc1cc(/C=C2/C(C)=C(CN(Cc3ccc4ccccc4c3)Cc3ccc4ccccc4c3)c3cc(F)ccc32)cc(OC)c1OC [Compound 58], the CC50 [1, 5] is reported as > 50 µM, the CC50 [2, 6] is reported as > 50 µM and the melting point is reported as 95 to 97 °C. The CC50 ([3]; 72 h) was > 50 µM.
In the case of CSc1ccc(/C=C2/C(C)=C(CN(Cc3ccccc3)Cc3ccccc3)c3cc(F)ccc32)cc1 [Compound 48], the CC50 [1, 5] is reported as > 50 µM, the CC50 [2, 6] is reported as > 50 µM and the CC50 ([3]; 72 h) is reported as > 50 µM.
For CSc1ccc(/C=C2/C(C)=C(CN)c3cc(F)ccc32)cc1 [Compound 16], the CC50 [1, 5] was 16 ± 6.08 µM, the CC50 [2, 6] was 19.3 ± 2.12 µM and the CC50 ([3]; 72 h) was 33.6 ± 6.59 µM.
In the case of CSc1ccc(/C=C2/C(C)=C(CN(Cc3ccc4ccccc4c3)Cc3ccc4ccccc4c3)c3cc(F)ccc32)cc1 [Compound 52], the CC50 [1] is reported as > 50 µM, the CC50 [2] is reported as > 50 µM and the CC50 [3] is reported as > 50 µM.
With COc1cc(/C=C2/C(C)=C(CNS(=O)(=O)c3ccc(C)cc3)c3cc(F)ccc32)cc(OC)c1OC [Compound 44] the CC50 [1, 7] was > 50 µM, the CC50 [2, 8] was 44.5 ± 25.7 µM and the CC50 [3] was > 50 µM.
For COc1cc(/C=C2/C(C)=C(CN(CCc3ccccc3)CCc3ccccc3)c3cc(F)ccc32)cc(OC)c1OC [Compound 60], the CC50 [1, 5] was > 50 µM, the CC50 [2, 6] was > 50 µM and the CC50 ([3]; 72 h) was > 50 µM.
CSc1ccc(/C=C2/C(C)=C(CCNCCN(C)C)c3cc(F)ccc32)cc1 [Compound 10] gave a CC50 [1, 5] of 1.97 ± 0.18 µM, a CC50 [2, 6] of 3.42 ± 1.5 µM and a CC50 ([3]; 72 h) of 4.38 ± 0.25 µM.
For CSc1ccc(/C=C2/C(C)=C(CN(CCc3ccccc3)CCc3ccccc3)c3cc(F)ccc32)cc1 [Compound 53], the CC50 [1] was > 50 µM, the CC50 [2] was > 50 µM and the CC50 [3] was > 50 µM.
CSc1ccc(/C=C2/C(C)=C(CNC(=O)Cc3ccccc3)c3cc(F)ccc32)cc1 [Compound 18] showed a CC50 [1, 5] of 3.56 ± 1.25 µM, a CC50 [2, 6] of 4.06 ± 1.97 µM and a CC50 ([3]; 72 h) of 18.9 ± 9.71 µM.
With CSc1ccc(/C=C2/C(C)=C(CCN)c3cc(F)ccc32)cc1 [Compound 13] the CC50 [1, 5] was 4.05 ± 0.16 µM, the EC50 [4] was > 7.57 µM and the CC50 [2, 6] was 7.2 ± 0.29 µM. It also gave a CC50 ([3]; 72 h) of 7.46 ± 0.46 µM.
For COc1cc(/C=C2/C(C)=C(CNC(C)=O)c3cc(F)ccc32)cc(OC)c1OC [Compound 28], the CC50 [1, 5] was 6.44 ± 1.4 µM, the CC50 [2, 6] was 5.77 ± 1.55 µM and the melting point was 183 to 185 °C. It also gave a CC50 ([3]; 72 h) of 23.3 ± 2.61 µM.
CSc1ccc(/C=C2/C(C)=C(CNS(=O)(=O)c3cccc4ccccc34)c3cc(F)ccc32)cc1 [Compound 38] gave a CC50 [1, 5] of 17 ± 3.73 µM, a CC50 [2, 6] of 38.9 ± 10.3 µM and a melting point of 94 to 95 °C. The CC50 ([3]; 72 h) was > 50 µM.
COc1cc(/C=C2/C(C)=C(CNS(C)(=O)=O)c3cc(F)ccc32)cc(OC)c1OC [Compound 41] gave a CC50 [1, 7] of 20 ± 4.86 µM, a CC50 [2, 8] of 12.9 ± 1.79 µM and a CC50 [3] of 18.9 ± 2.47 µM.
For COc1ccc(CN(CC2=C(C)/C(=C/c3cc(OC)c(OC)c(OC)c3)c3ccc(F)cc32)Cc2ccc(OC)cc2)cc1 [Compound 59], the CC50 [1] was > 50 µM, the CC50 [2] was > 50 µM and the CC50 [3] was > 50 µM.
In the case of CSc1ccc(/C=C2/C(C)=C(CN(Cc3ccco3)Cc3ccco3)c3cc(F)ccc32)cc1 [Compound 54], the CC50 [1] is reported as > 50 µM, the CC50 [2] is reported as 48.8 ± 20.3 µM and the CC50 [3] is reported as > 50 µM.
In the case of COc1cc(/C=C2/C(C)=C(CN(Cc3ccc(F)cc3)Cc3ccc(F)cc3)c3cc(F)ccc32)cc(OC)c1OC [Compound 57], the CC50 [1] is reported as > 50 µM, the CC50 [2] is reported as > 50 µM and the CC50 [3] is reported as > 50 µM.
For CSc1ccc(/C=C2/C(C)=C(CNS(=O)(=O)c3ccccc3)c3cc(F)ccc32)cc1 [Compound 36], the CC50 [1, 5] was 9.94 ± 0.83 µM, the CC50 [2, 6] was 17.7 ± 2.1 µM and the melting point was 141 to 143 °C. The CC50 ([3]; 72 h) was 39.6 ± 14.8 µM.
Compound CCS(=O)(=O)NCC1=C(C)/C(=C/c2ccc(SC)cc2)c2ccc(F)cc21 [Compound 35] has a CC50 [1, 5] of 8.33 ± 1.64 µM, a CC50 [2, 6] of 11.9 ± 2.61 µM and a melting point of 131 to 133 °C. For the same compound, the CC50 ([3]; 72 h) was 22.6 ± 3.25 µM.
For COc1cc(/C=C2/C(C)=C(CN(Cc3ccccc3)Cc3ccccc3)c3cc(F)ccc32)cc(OC)c1OC [Compound 55], the CC50 [1] was > 50 µM, the CC50 [2] was > 50 µM and the CC50 [3] was > 50 µM.
